Assay results published in patent publication US6635437B2, “Compounds, compositions and methods for generating chemiluminescence with phosphatase enzymes” (Lumigen, Inc., priority 1996, dated 2003).
Blank lines part the entries; values can stand above or below the compound they belong to.

Tests used:
[1] = test system: alkaline phosphatase (AP); assay: Chemiluminescent detection of alkaline phosphatase with acridan phosphate and cationic aromatic compound (CAC); format: biochemical; conditions: for S at 36 min (plateau intensity): 21 mM CAC in DMSO diluted 1:1000 into compound 5 in 0.1 M tris pH 8.8
[2] = test system: alkaline phosphatase (AP); assay: Chemiluminescent detection of alkaline phosphatase with acridan phosphate and surfactant enhancer; format: biochemical; conditions: for S/B (ratio of maximum light intensity to light intensity in the absence of enzyme): 0.33 mM 1, 0.01 mg/mL Enhancer A; for Rel. (S/B normalized to the results obtained with no enhancer) / S/B (ratio of light intensities with AP and with no enzyme): acridan 1 with 10^−16 mol of AP, each surfactant at the concentration producing the greatest enhancement
[3] = test system: acid phosphatase (AcP); assay: Chemiluminescent detection of acid phosphatase and inhibition by tartrate; format: biochemical
Method: The quenching of emission was not due to a reduction of the pH since addition of 10 μL of citrate buffer caused only a 25% reduction in light intensity.

[4] = test system: acid phosphatase (AcP); assay: Chemiluminescent detection of AcP by pH change; format: biochemical; conditions: 0.33 mM 1, tris pH 7.0, 0.1% BSA, 0.01% Enhancer A, 3 μL AcP, 8 min; 1 N NaOH injected, integrated 4 min
Method: An alternate way to detect the light emitted by reaction of AcP with 1 is to incubate a reagent composition containing 1 and enhancer with AcP at a first pH and then rapidly raise the pH by injecting a solution of a strong base to cause a burst of light emission. A reagent composition (100 μL) comprising 0.33 mM acridan phosphate 1 in 0.1 M tris buffer, pH 7.0, 0.1% BSA and 0.01% Enhancer A was reacted with 3 μL of AcP (Sigma AcP LIN-TROL, reconstituted to 2.0 mL, 83 U/L) for 8 min at ambient temperature in a test tube. A solution of 1 N NaOH (50 μL) was injected and light intensity integrated for 4 min.

[5] = test system: AP-labeled antibody; assay: Western blot assay of human transferrin using PVDF membrane
From the text: The chemiluminescent reaction of the present invention provides a particularly effective reagent for detection of AP conjugates on polyvinylidene difluoride (PVDF) membranes, nylon membranes and on nitrocellulose filters and membranes.
provides an intense luminescence which rises to a maximum level nearly instantly and maintains essentially constant intensity for at least 2 days. Detection on film and optimizing image intensity are thus particularly convenient.
Compositions of the present invention were used to detect and quantify a protein, human transferrin in a Western blot with an AP-labeled antibody on a polyvinylidene difluoride (PVDF) membrane. Dilutions of transferrin containing from 5000, 1000, 180, 30 and 5 pg, respectively, of protein were electrophoresed and transferred to PVDF membranes (Millipore, Bedford, Mass.). The transferrin bands were blocked with and then reacted sequentially with goat anti-human transferrin and rabbit anti-goat-AP conjugate. The membranes were soaked briefly with reagents comprising 0.2 M 221 buffer, pH 9.6 containing 0.88 mM MgCl2, 0.66 mM acridan phosphate 1 and 0.1 to 1 mg/mL of Enhancer A. The membranes were placed between transparent plastic sheets and exposed to X-ray film. […] The light produced using these compositions with varying amounts of the enhancer led to intense emission which could be imaged for at least 2 weeks. […]

[6] = test system: AP-labeled antibody; assay: Western blot using nitrocellulose membrane; conditions: 0.33 mM 1, pH 9.6, 0.5 mg/mL Enhancer A
Method: A Western blot assay according to the procedures in Example 27 was performed using nitrocellulose membrane as the solid phase. Transferrin standards in the range of 5000-30 pg were used.

[7] = 4×10^−16 mol AP, room temperature

Compound: 9-(2,6-Dimethylphenylthiophosphoryloxymethylidene)-10-methylacridan. disodium salt [Compound 9]
S at 36 min (plateau intensity) [1, 7]: 781

Compound: (E,Z)-9-(Phenoxy)phosphoryloxymethylidene)-3-methoxy-10-methylacridan, disodium salt [Compound 3]
S at 36 min (plateau intensity) [1, 7]: 5963

effect of addition of AP on chemiluminescence ([2]; composition as Example 14 with the ester in place of 1): no effect
Compound: CN1c2ccccc2C(C(=O)Oc2ccccc2)c2ccccc21 [phenyl 10-methylacridan-9-carboxylate, reference compound]

Compound: 9-(4-Methoxyphenylthiophosphoryloxymethylidene)-10-methylacridan, disodium salt [Compound 8]
S at 36 min (plateau intensity) [1, 7]: 19.1

Compound: O=S([O-])[O-].[Na+].[Na+] [Na2SO3, sodium sulfite]
background signal (B) in the absence of AP versus control ([1]; Na2SO3 1.0 mg/mL to 1.0 μg/mL in Reagent A): lower background signal (B)
signal (S) versus control ([1]; Na2SO3 1.0 mg/mL to 1.0 μg/mL in Reagent A, 4×10^−16 mol AP, 3.5 min, room temperature): higher signal (S) than the control

Compound: C[n+]1c2ccccc2c(-c2c3ccccc3[n+](C)c3ccccc23)c2ccccc21.O=[N+]([O-])[O-].O=[N+]([O-])[O-] [CAC 1, N,N′-dimethylbiacridinium dinitrate, reference compound]
effect of lucigenin on light intensity ([1]; 6.4 μM lucigenin, 0.66 mM 5, 0.1 M tris pH 8.8, 8×10^−16 mol AP, 25° C.): much higher light intensity
signal (S) versus control without lucigenin ([1]; 6.4 mM to 6.4 nM lucigenin, 0.66 mM 5, tris pH 8.8, 4×10^−16 mol AP, 3.5 min, room temperature): higher signal (S) than the control

Compound: CN1c2ccccc2C(=C(Oc2ccccc2)OP(=O)([O-])[O-])c2ccccc21.[Na+].[Na+] [Compound 1, 9-(Phenoxyphosphoryloxymethylidene)-10-methylacridan, disodium salt]
time to maximum chemiluminescence intensity ([2]; 0.33 mM 1, 0.1 M tris pH 8.5, 0.88 mM Mg, 0.01 mg/mL Enhancer A, 10^−13 mol AP, 25° C.): 2 min
chemiluminescence on reaction with AP ([2]; composition of Example 14 (0.1 M tris pH 8.5, Enhancer A), AP, 25° C.): easily measurable blue chemiluminescence
S/B (ratio of maximum light intensity to light intensity in the absence of enzyme) ([2]; pH 7.0, tris, 8×10^−16 mol AP, 25° C.): 37
S/B (ratio of maximum light intensity to light intensity in the absence of enzyme) ([2]; pH 7.5, tris, 8×10^−16 mol AP, 25° C.): 144
S/B (ratio of maximum light intensity to light intensity in the absence of enzyme) ([2]; pH 8.0, tris, 8×10^−16 mol AP, 25° C.): 273
S/B (ratio of maximum light intensity to light intensity in the absence of enzyme) ([2]; pH 8.5, tris, 8×10^−16 mol AP, 25° C.): 280
S/B (ratio of maximum light intensity to light intensity in the absence of enzyme) ([2]; pH 9.0, 221 buffer, 8×10^−16 mol AP, 25° C.): 200
S/B (ratio of maximum light intensity to light intensity in the absence of enzyme) ([2]; pH 9.0, tris, 8×10^−16 mol AP, 25° C.): 195
S/B (ratio of maximum light intensity to light intensity in the absence of enzyme) ([2]; pH 9.5, 221 buffer, 8×10^−16 mol AP, 25° C.): 87
S/B (ratio of maximum light intensity to light intensity in the absence of enzyme) ([2]; pH 10.0, 221 buffer, 8×10^−16 mol AP, 25° C.): 13
S/B (ratio of maximum light intensity to light intensity in the absence of enzyme) ([2]; pH 10.5, 221 buffer, 8×10^−16 mol AP, 25° C.): 1.3
time to maximum chemiluminescence intensity ([2]; reagent composition of Example 14, 8×10^−16 mol AP, 25° C.): ca. 2 min
time course of chemiluminescence with AcP ([3]; 0.33 mM 1, 0.1 M tris pH 7, 0.01-0.1% Enhancer A, ambient temperature): reached maximum intensity nearly instantaneously and remained nearly constant for several minutes
light intensity relative to reagent blank [4]: three times the reagent blank
time for which emission could be imaged ([5]; 0.66 mM 1, 0.2 M 221 buffer pH 9.6, 0.1 to 1 mg/mL Enhancer A, PVDF): at least 2 weeks
time for which luminescence maintains essentially constant intensity ([5]; antibody-AP conjugate on PVDF membrane): at least 2 days
period over which detection could be performed [6]: over several hours
S at 36 min (plateau intensity) [1, 7]: 2602

Rel. (S/B normalized to the results obtained with no enhancer) [2]: 1.9
S/B (ratio of light intensities with AP and with no enzyme) [2]: 26
rise to peak signal versus control without SDS ([1]; SDS 10 mg/mL to 10 μg/mL, 0.66 mM 5, tris pH 8.8, 4×10^−16 mol AP, room temperature): faster rise to peak signal
Compound: CCCCCCCCCCCCOS(=O)(=O)[O-].[Na+] [Surfactant H, sodium dodecyl sulfate]

Compound: 9-(3,5-Dimethylphenoxy)phohosphoryloxymethylidene)-10-methylacridan. disodium salt [Compound 2]
S at 36 min (plateau intensity) [1, 7]: 45.3

Compound: 9-(4-Fluorophenylthiophosphoryloxymethylidene)-10-methylacridan, disodium salt [Compound 7]
time to stable plateau of chemiluminescence intensity ([1]; 0.66 mM 7, 6.4 μM lucigenin, SDS, Na2SO3, TWEEN 20, tris pH 8.8, 8×10^−16 mol AP, room temperature): under 5 sec
S at 36 min (plateau intensity) [1, 7]: 61.6

Compound: 9-(Phenylthiophosphoryloxymethylidene)-2,7-difluoro-10-methylacridan, disodium salt [Compound 10]
S at 36 min (plateau intensity) [1, 7]: 21.1

Compound: bovine serum albumin: the protein bovine serum albumin, added to the detection reagent
effect on duration of light emission ([3]; added to the detection reagent at 0.1%): prolonged the duration of light emission significantly

Compound: (E,Z)-9-(Phenoxy)phosphoryloxymethylidene)-12-methylbenz[c]acridan, disodium salt [Compound 6]
S at 36 min (plateau intensity) [1, 7]: 72.3

effect on light emission (inhibition of enzyme activity) ([3]; addition of 5 μL of 0.04 M tartrate in citrate buffer (0.09 M, pH 4.8)): complete extinction of light emission
Compound: O=C(O)C(O)C(O)C(=O)O (stereo not shown) [tartrate, reference compound]

Compound: CCCCCCCCCCCCCCCC[N+](C)(C)C.[Br-] [Surfactant I, cetyltrimethylammonium bromide]
Rel. (S/B normalized to the results obtained with no enhancer) [2]: 1.7
S/B (ratio of light intensities with AP and with no enzyme) [2]: 24

Compound: CCCCCCCC[P+](CCCCCCCC)(CCCCCCCC)Cc1ccc(C[P+](CCCC)(CCCC)CCCC)cc1.[Cl-].[Cl-] [Surfactant E, 1-trioctylphosphoniummethyl-4-tributylphosphonium-methylbenzene dichloride]
Rel. (S/B normalized to the results obtained with no enhancer) [2]: 11.6
S/B (ratio of light intensities with AP and with no enzyme) [2]: 162

Compound: (E, Z)-9-(2,6-Dimethylphenoxy)phosphoryloxymethylidene)-3-chloro-10-methylacridan, disodium salt [Compound 4]
S at 36 min (plateau intensity) [1, 7]: 4645

Compound: 9-(2′,2′,2′-Trifluoroethylthiophosphoryloxymethylidene)-10-methylacridan, disodium salt [Compound 11]
S at 36 min (plateau intensity) [1, 7]: 9.3

Compound: 1-trioctylphosphoniummethyl-4-tributylammonium-methylbenzene, mixed bromide chloride salt [Surfactant G]
Rel. (S/B normalized to the results obtained with no enhancer) [2]: 4.5
S/B (ratio of light intensities with AP and with no enzyme) [2]: 63

Compound: polyoxyethylene(20)sorbitan monolaurate [Surfactant F]
Rel. (S/B normalized to the results obtained with no enhancer) [2]: 8.6
S/B (ratio of light intensities with AP and with no enzyme) [2]: 120
effect on duration of chemiluminescence ([1]; TWEEN 20 1.0% to 0.001%, Reagent A with 21 μM lucigenin, lacking Na2SO3, 4×10^−16 mol AP): effective in extending the duration of chemiluminescence at or near maximum intensity

Compound: CCCCCCCC[N+](CCCCCCCC)(CCCCCCCC)Cc1ccc(C[N+](CCCC)(CCCC)CCCC)cc1.[Cl-].[Cl-] [Surfactant J, 1-trioctylammoniumnmethyl-4-tributylammoniummethylbenzene dichloride]
Rel. (S/B normalized to the results obtained with no enhancer) [2]: 1.2
S/B (ratio of light intensities with AP and with no enzyme) [2]: 17
